Data published in patent US11752155B2, “Treatment of autism spectrum disorders, obsessive-compulsive disorder and anxiety disorders” (Rugen Holdings (Cayman) Limited, priority 2016, dated 2023).
Read-outs that look alike come from different tables or passages of the source.

What was measured:
human NR1/NR2B = human NR1/NR2B (Homo sapiens (Human), UniProt Q05586+Q13224); test: NR2B antagonist activity: calcium influx (Fluo-4) assay in HEK293 cells; format: cell-based; conditions: read-out: NR2B IC50
Summary of the method: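 HEK293 cells expressing NR1/NR2A or NR1/NR2B, loaded with fluo-4-AM, preincubated 10 min at room temperature with compound in Hanks buffer/0.1% BSA.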

human NR1/NR2A = human NR1/NR2A (Homo sapiens (Human), UniProt Q05586+Q12879); test: NR2A antagonist activity: calcium influx (Fluo-4) assay in HEK293 cells; format: cell-based; conditions: Table 1.1B; read-out: NR2A IC50
Procedure: Activation of the NR2A or NR2B subtype of NMDA receptor with glutamate as an agonist and glycine co-agonist on these cells results in calcium influx, which can be monitored with fluorescent indicator Fluo-4.
For experiments, the cells were seeded onto poly-D-lysine-coated 96-well black plates with clear bottom (Corning) at a density of ˜50,000 cells/well. After overnight culture, the growth medium was removed from the wells and the cells were incubated at 37° C. for 60 minutes in Hanks buffer containing 4 μM fluo-4-AM (Invitrogen) and 0.1% bovine serum albumin (BSA). After dye-loading, the cells were washed three times with Hanks buffer and incubated for 10 minutes at room temperature with various concentrations of test compounds prepared in Hanks buffer with 0.1% BSA. The cell plates were placed onto an FDSS Cell fluorescence reader (Hamamatsu). After 20 seconds of reading background fluorescence, agonist glutamate at final 100 µM and co-agonist glycine at final 50 μM were added to the cells to activate the receptor, and the resulting fluorescence changes were recorded and quantified. Based on the changes in fluorescence intensity, the pharmacological effect of test compounds was analyzed and the IC50 values derived from a non-linear least squares fitting of the concentration-dependent response to a standard logistic equation using Prism (Graphpad Software, Inc.): Amplitude=Max Amplitude/(1+(IC50/[antagonist])^n).

[1] = target: native rat brain NR2B receptors (Rattus norvegicus (Rat), UniProt P35439+Q00960); test: NR2B radioligand binding assay in rat brain using [3H] (E)-N1-(2-methoxybenzyl)-cinnamidine; conditions: rat brain NR2B receptors; mean of replicates; read-out: Arithmetic Mean Ki
native rat brain NR2B receptors, sequence (Q00960 27-1482, other chains not shown): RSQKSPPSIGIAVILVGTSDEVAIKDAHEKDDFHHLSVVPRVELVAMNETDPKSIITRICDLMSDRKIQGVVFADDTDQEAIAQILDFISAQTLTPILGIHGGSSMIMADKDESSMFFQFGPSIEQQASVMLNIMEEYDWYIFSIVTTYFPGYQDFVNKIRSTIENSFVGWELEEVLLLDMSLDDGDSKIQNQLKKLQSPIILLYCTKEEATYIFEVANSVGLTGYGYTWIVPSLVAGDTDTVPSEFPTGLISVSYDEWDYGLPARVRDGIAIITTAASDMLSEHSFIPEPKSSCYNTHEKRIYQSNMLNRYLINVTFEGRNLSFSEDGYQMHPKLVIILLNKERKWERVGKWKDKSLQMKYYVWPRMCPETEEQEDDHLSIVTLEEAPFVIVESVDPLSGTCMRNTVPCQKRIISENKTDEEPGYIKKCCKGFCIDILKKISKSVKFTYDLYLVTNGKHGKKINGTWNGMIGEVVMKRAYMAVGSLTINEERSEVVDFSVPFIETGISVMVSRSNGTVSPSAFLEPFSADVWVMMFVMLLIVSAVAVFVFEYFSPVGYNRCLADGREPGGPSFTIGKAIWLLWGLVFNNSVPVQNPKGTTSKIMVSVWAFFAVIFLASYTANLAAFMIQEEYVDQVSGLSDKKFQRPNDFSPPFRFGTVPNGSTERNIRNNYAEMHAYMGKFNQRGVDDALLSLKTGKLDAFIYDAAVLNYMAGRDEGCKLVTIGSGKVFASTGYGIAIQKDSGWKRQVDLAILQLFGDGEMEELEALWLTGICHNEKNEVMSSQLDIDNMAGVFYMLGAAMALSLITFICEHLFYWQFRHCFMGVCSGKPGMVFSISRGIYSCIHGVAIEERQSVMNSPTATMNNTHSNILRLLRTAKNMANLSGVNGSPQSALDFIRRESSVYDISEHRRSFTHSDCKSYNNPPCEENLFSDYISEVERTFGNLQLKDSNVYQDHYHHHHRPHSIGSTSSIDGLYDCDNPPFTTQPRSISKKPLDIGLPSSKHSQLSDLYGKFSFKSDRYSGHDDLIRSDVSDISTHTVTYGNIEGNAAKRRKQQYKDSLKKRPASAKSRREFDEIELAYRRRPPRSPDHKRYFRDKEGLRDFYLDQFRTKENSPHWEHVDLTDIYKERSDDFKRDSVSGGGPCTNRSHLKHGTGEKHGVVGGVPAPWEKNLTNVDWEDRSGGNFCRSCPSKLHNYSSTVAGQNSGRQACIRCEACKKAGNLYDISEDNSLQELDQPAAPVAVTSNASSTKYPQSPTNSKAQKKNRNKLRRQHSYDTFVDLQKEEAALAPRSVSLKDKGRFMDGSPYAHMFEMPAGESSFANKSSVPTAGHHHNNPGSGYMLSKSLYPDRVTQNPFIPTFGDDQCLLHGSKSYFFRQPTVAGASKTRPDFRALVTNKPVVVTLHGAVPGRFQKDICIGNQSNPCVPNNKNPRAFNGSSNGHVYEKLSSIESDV

human NR1/NR2B, sequence (Q13224 27-1484, other chains not shown): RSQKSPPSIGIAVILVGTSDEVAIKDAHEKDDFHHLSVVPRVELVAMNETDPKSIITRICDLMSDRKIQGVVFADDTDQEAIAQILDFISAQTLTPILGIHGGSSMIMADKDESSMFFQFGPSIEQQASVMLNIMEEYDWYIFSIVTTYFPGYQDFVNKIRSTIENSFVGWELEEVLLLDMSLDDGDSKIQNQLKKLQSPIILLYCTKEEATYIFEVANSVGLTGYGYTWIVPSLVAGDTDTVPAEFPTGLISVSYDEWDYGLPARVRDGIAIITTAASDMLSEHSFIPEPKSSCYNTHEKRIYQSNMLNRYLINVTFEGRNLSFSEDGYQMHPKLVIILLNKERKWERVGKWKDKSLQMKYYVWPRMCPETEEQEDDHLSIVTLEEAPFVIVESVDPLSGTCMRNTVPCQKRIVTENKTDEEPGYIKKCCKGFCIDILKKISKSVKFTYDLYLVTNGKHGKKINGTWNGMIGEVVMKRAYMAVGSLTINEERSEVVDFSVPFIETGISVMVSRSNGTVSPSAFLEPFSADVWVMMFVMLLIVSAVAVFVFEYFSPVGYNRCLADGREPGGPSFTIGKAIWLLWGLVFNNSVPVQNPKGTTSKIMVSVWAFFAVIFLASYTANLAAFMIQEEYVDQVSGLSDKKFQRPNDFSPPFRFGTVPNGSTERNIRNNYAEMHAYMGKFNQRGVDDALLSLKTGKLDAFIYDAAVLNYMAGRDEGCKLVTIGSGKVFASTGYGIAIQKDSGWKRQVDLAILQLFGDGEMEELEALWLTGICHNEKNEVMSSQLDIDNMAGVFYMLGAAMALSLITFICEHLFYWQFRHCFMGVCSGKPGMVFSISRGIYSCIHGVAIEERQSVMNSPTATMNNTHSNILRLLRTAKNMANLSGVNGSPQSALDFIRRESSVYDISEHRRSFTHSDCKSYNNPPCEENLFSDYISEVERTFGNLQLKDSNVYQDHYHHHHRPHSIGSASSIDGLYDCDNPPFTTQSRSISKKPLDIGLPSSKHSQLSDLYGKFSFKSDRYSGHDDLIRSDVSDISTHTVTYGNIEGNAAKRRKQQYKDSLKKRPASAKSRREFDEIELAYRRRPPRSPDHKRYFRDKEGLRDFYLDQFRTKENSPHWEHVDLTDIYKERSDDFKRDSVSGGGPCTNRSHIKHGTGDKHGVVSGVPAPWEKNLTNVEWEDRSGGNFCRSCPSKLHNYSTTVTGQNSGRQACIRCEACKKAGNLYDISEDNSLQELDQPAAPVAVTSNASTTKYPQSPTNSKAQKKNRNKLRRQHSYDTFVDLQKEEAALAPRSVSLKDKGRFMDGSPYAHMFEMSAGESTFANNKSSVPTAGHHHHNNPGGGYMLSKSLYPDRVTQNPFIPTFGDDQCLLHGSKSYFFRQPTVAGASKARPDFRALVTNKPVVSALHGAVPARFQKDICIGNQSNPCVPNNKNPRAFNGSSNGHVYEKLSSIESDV
human NR1/NR2A, sequence (Q12879 23-1464, other chains not shown): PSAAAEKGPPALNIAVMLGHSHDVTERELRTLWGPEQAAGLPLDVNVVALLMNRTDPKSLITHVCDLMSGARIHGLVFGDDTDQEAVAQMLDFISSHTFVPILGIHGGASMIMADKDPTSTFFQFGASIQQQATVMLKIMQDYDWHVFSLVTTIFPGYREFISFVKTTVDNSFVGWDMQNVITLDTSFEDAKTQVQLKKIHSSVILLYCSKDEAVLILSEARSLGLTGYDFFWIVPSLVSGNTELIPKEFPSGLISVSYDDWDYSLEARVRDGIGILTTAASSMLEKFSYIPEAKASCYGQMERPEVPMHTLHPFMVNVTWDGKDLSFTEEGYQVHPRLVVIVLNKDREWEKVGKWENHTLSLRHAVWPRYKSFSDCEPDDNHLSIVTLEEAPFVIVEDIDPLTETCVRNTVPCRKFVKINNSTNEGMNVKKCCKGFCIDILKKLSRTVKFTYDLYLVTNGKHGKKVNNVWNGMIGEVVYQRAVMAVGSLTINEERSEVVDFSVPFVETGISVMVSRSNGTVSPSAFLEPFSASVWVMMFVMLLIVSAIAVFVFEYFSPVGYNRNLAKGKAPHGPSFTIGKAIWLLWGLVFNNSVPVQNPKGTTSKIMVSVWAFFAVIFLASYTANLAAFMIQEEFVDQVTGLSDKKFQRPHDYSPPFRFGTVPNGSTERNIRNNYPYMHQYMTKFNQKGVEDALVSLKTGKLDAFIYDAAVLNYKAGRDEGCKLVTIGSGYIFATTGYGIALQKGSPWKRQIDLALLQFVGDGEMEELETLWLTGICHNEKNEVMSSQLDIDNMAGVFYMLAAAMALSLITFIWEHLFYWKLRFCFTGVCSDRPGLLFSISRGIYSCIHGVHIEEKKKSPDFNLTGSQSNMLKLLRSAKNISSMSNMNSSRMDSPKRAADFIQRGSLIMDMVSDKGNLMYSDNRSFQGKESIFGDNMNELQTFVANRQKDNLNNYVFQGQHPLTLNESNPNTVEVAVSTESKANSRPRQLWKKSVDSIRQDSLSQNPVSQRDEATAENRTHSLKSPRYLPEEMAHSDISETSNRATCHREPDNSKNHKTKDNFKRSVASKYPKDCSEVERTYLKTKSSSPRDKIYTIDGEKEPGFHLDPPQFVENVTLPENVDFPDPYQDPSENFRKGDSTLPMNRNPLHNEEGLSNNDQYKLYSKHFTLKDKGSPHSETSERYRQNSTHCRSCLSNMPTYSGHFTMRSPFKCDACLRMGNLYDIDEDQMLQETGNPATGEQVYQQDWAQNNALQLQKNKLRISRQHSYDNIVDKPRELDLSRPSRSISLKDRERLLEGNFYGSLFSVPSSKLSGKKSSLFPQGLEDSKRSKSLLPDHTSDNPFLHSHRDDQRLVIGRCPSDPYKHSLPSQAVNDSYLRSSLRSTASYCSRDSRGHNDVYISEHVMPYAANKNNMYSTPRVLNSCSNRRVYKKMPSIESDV

IC50 (human NR1/NR2B; Table 1.1B)	IC50 (human NR1/NR2B; Table 1.3B)	IC50 (human NR1/NR2B; Table 1.4B)	IC50 (human NR1/NR2A)	Ki [1]	Compound
29 nM	29 nM	29 nM			Cc1ccc(COC(=O)N2CC[C@H](CNc3cnc(C)cn3)C(F)(F)C2)cc1 [E1-21.26^B′]
20.7 nM	20.7 nM	20.7 nM	> 10000 nM	4.81 nM	Cc1ccc(COC(=O)N2CC[C@H](CNc3nccn4cnnc34)C(F)(F)C2)cc1 [E1-1.2^B′]
